Measured values published in patent publication US12077503B2, “Substituted cyclic amides and their use as herbicides” (FMC CORPORATION, priority 2015, dated 2024).

Columns and labels:
[1] = tested on: velvetleaf (Abutilon theophrasti); experiment: Test G Pre-Emergence Protocol; format: in vivo; conditions: Abutilon theophrasti, pre-emergence, 312 h, evaluated after 13 days; for pest or weed control at 15.625 g/ha: 15.625 g ai/ha; for pest or weed control at 15.625 g/ha / pest or weed control at 250 g/ha: read-out: Velvetleaf damage rating (100=total damage to plant; 0=no damage to plant); for pest or weed control at 62.5 g/ha: 62.5 g ai/ha, 100=total damage to plant, 0=no damage to plant, read-out: plant damage rating, Velvetleaf; for pest or weed control at 250 g/ha: 250 g ai/ha
Procedure, shortened: (§1)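 Spraying took place one day after sowing, at 15.625, 62.5 or 250 g/ha, using an acetone/water (50:50) spray solution containing 0.5% Tween 20. Plants were kept under glasshouse conditions (24/16 °C, 14 h light, 65% humidity, watered twice daily), and injury was rated 0–100 at day 13.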

[2] = tested on: corn (Zea mays); experiment: Test G Pre-Emergence Protocol; format: in vivo; conditions: Zea mays, pre-emergence, 312 h, evaluated after 13 days; for plant injury at 15.625 g/ha: 15.625 g ai/ha; for plant injury at 15.625 g/ha / plant injury at 250 g/ha: read-out: Corn damage rating (100=total damage to plant; 0=no damage to plant); for plant injury at 62.5 g/ha: 62.5 g ai/ha, 100=total damage to plant, 0=no damage to plant, read-out: plant damage rating, Corn; for plant injury at 250 g/ha: 250 g ai/ha
Procedure, shortened: as §1

[3] = tested on: barnyardgrass (Echinochloa crus-galli); experiment: Test G Pre-Emergence Protocol; format: in vivo; conditions: Echinochloa crus-galli, pre-emergence, 312 h, evaluated after 13 days; for pest or weed control at 15.625 g/ha: 15.625 g ai/ha, read-out: Barnyard grass damage rating (100=total damage to plant; 0=no damage to plant); for pest or weed control at 62.5 g/ha: 62.5 g ai/ha, 100=total damage to plant, 0=no damage to plant, read-out: plant damage rating, Barnyardgrass; for pest or weed control at 250 g/ha: 250 g ai/ha, read-out: Barnyardgrass damage rating (100=total damage to plant; 0=no damage to plant)
Procedure, shortened: as §1

[4] = tested on: ivy-leaved morning glory (Ipomoea hederacea); experiment: Test G Pre-Emergence Protocol; format: in vivo; conditions: Ipomoea, pre-emergence, 312 h, evaluated after 13 days; for pest or weed control at 15.625 g/ha: 15.625 g ai/ha, read-out: Morning-glory, Ivy-leaved damage rating (100=total damage to plant; 0=no damage to plant); for pest or weed control at 62.5 g/ha: 62.5 g ai/ha, 100=total damage to plant, 0=no damage to plant, read-out: plant damage rating, Morningglory, Ivy-leaved; for pest or weed control at 250 g/ha: 250 g ai/ha, read-out: Morningglory, Ivy-leaved damage rating (100=total damage to plant; 0=no damage to plant)
Procedure, shortened: as §1

[5] = tested on: redroot pigweed (Amaranthus retroflexus); experiment: Test G Pre-Emergence Protocol; format: in vivo; conditions: Amaranthus retroflexus, pre-emergence, 312 h, evaluated after 13 days; for pest or weed control at 15.625 g/ha: 15.625 g ai/ha; for pest or weed control at 15.625 g/ha / pest or weed control at 250 g/ha: read-out: Pigweed, Redroot damage rating (100=total damage to plant; 0=no damage to plant); for pest or weed control at 62.5 g/ha: 62.5 g ai/ha, 100=total damage to plant, 0=no damage to plant, read-out: plant damage rating, Pigweed, Redroot; for pest or weed control at 250 g/ha: 250 g ai/ha
Procedure, shortened: as §1

[6] = tested on: giant foxtail (Setaria faberi); experiment: Test G Pre-Emergence Protocol; format: in vivo; conditions: Setaria faberi, pre-emergence, 312 h, evaluated after 13 days; for pest or weed control at 15.625 g/ha: 15.625 g ai/ha; for pest or weed control at 15.625 g/ha / pest or weed control at 250 g/ha: read-out: Foxtail, Giant damage rating (100=total damage to plant; 0=no damage to plant); for pest or weed control at 62.5 g/ha: 62.5 g ai/ha, 100=total damage to plant, 0=no damage to plant, read-out: plant damage rating, Foxtail, Giant; for pest or weed control at 250 g/ha: 250 g ai/ha
Procedure, shortened: as §1

Structure (SMILES) | melting point [°C] | pest or weed control at 15.625 g/ha [1] [%] | pest or weed control at 62.5 g/ha [1] [%] | pest or weed control at 250 g/ha [1] [%] | plant injury at 15.625 g/ha [2] [%] | plant injury at 62.5 g/ha [2] [%] | plant injury at 250 g/ha [2] [%] | pest or weed control at 15.625 g/ha [3] [%] | pest or weed control at 62.5 g/ha [3] [%] | pest or weed control at 250 g/ha [3] [%] | pest or weed control at 15.625 g/ha [4] [%] | pest or weed control at 62.5 g/ha [4] [%] | pest or weed control at 250 g/ha [4] [%] | pest or weed control at 15.625 g/ha [5] [%] | pest or weed control at 62.5 g/ha [5] [%] | pest or weed control at 250 g/ha [5] [%] | pest or weed control at 15.625 g/ha [6] [%] | pest or weed control at 62.5 g/ha [6] [%] | pest or weed control at 250 g/ha [6] [%]
CN1C[C@@H](c2ccc(C(F)(F)F)cc2)[C@H](C(=O)Nc2ncc(C#N)s2)C1=O (racemic) [Compound 1528] |  | 0 | 0 | 0 | 0 | 0 | 0 | 0 | 0 | 0 | 0 | 0 | 0 | 0 | 0 | 0 | 0 | 0 | 0
Cc1cc(NC(=O)[C@@H]2C(=O)N(C)C[C@H]2c2ccc(C(F)(F)F)cc2)n[nH]1 (racemic) [Compound 1532] |  | 0 | 0 | 0 | 0 | 0 | 0 | 0 | 30 | 0 | 0 | 0 | 0 | 0 | 0 | 0 | 100 | 100 | 0
CN1C[C@@H](c2ccc(C(F)(F)F)cc2)[C@H](C(=O)Nc2cc[nH]n2)C1=O (racemic) [Compound 1533] |  | 0 | 0 | 0 | 0 | 0 | 0 | 0 | 0 | 0 | 0 | 0 | 0 | 0 | 0 | 0 |  | 0 | 0
CN1C[C@@H](c2ccc(C(F)(F)F)cc2)[C@H](C(=O)Nc2nc[nH]n2)C1=O (racemic) [Compound 1534] |  | 0 | 0 | 0 | 0 | 0 | 0 | 0 | 0 | 0 | 0 | 0 | 0 | 0 | 0 | 0 | 0 | 0 | 0
CN1C[C@@H](c2ccc(C(F)(F)F)cc2)[C@H](C(=O)Nc2cnccc2Cl)C1=O (racemic) [Compound 1541] |  | 0 | 0 | 0 | 0 | 0 | 10 | 0 | 0 | 30 | 0 | 0 | 0 | 0 | 0 | 40 | 0 | 0 | 70
CN1C[C@@H](c2ccc(C(F)(F)F)cc2)[C@H](C(=O)Nc2ccc(C(F)(F)F)nc2Cl)C1=O (racemic) [Compound 1542] |  | 0 | 0 | 0 | 0 | 0 | 0 | 0 | 10 | 10 |  | 0 | 0 | 0 | 0 | 0 | 0 | 10 | 10
CN1C[C@H](c2cc(F)cc(F)c2)[C@@H](C(=O)NC2CCc3ccccc32)C1=O (stereo partly drawn) [Compound 755] | 135 to 139 |  |  |  |  |  |  |  |  |  |  |  |  |  |  |  |  |  | 
CN1C[C@H](c2nccs2)[C@@H](C(=O)Nc2ccccc2F)C1=O [Compound 773] | 69.5 to 77 |  |  |  |  |  |  |  |  |  |  |  |  |  |  |  |  |  | 
C=CCOc1cccc(C2CN(C)C(=O)C2C(=O)Nc2ccccc2F)c1 (stereo not drawn) [Compound 1329] | 81 to 84 |  |  |  |  |  |  |  |  |  |  |  |  |  |  |  |  |  | 

The next lines start with results.

melting point [°C] | Structure (SMILES) | pest or weed control at 15.625 g/ha [1] [%] | pest or weed control at 62.5 g/ha [1] [%] | pest or weed control at 250 g/ha [1] [%] | plant injury at 15.625 g/ha [2] [%] | plant injury at 62.5 g/ha [2] [%] | plant injury at 250 g/ha [2] [%] | pest or weed control at 15.625 g/ha [3] [%] | pest or weed control at 62.5 g/ha [3] [%] | pest or weed control at 250 g/ha [3] [%] | pest or weed control at 15.625 g/ha [4] [%] | pest or weed control at 62.5 g/ha [4] [%] | pest or weed control at 250 g/ha [4] [%] | pest or weed control at 15.625 g/ha [5] [%] | pest or weed control at 62.5 g/ha [5] [%] | pest or weed control at 250 g/ha [5] [%] | pest or weed control at 15.625 g/ha [6] [%] | pest or weed control at 62.5 g/ha [6] [%] | pest or weed control at 250 g/ha [6] [%]
146 to 150 | O=C1NC[C@H](c2cc(C(F)(F)F)ccn2)[C@H]1C(=O)Nc1cccc(F)c1F (racemic) [Compound 1376] |  |  |  |  |  |  |  |  |  |  |  |  |  |  |  |  |  | 
133.9 to 140.7 | CN1C[C@H](c2nccs2)[C@@H](C(=O)Nc2cccc(F)c2F)C1=O [Compound 774] |  |  |  |  |  |  |  |  |  |  |  |  |  |  |  |  |  | 
123 to 127 | Cc1ccccc1NC(=O)[C@H]1C(=O)N(C)C[C@@H]1c1ccc(C(F)(F)F)cc1 [Compound 1239] |  |  |  |  |  |  |  |  |  |  |  |  |  |  |  |  |  | 
54 to 57 | CN1CC[C@H](c2cccc(C(F)(F)F)c2)[C@@H](C(=O)Nc2cccc(F)c2F)C1=O [Compound 1330] |  |  |  |  |  |  |  |  |  |  |  |  |  |  |  |  |  | 
113 to 116 | CN1CC[C@H](c2cccc(C(F)(F)F)c2)[C@@H](C(=O)Nc2ccccc2F)C1=O [Compound 1331] |  |  |  |  |  |  |  |  |  |  |  |  |  |  |  |  |  | 
188.1 to 192.4 | CN1C[C@H](c2ccc(C(F)(F)F)nc2)[C@@H](C(=O)Nc2cccc(F)c2F)C1=O [Compound 1372] |  |  |  |  |  |  |  |  |  |  |  |  |  |  |  |  |  | 
139 to 142 | O=C1NC[C@H](c2cccc(C(F)(F)F)n2)[C@H]1C(=O)Nc1cccc(F)c1F [Compound 1385] |  |  |  |  |  |  |  |  |  |  |  |  |  |  |  |  |  | 
206 to 209 | O=C1NC[C@H](c2cncc(C(F)(F)F)c2)[C@H]1C(=O)Nc1cccc(F)c1F [Compound 1394] |  |  |  |  |  |  |  |  |  |  |  |  |  |  |  |  |  | 
